Data reported in ChEMBL document CHEMBL4706683 (J Med Chem, 2021).
Active and inactive are the calls of the source. The calls are words filed in the database; no cut-off is given here.

Legend:
[1] = tested on: HEK-293T; experiment: Cytotoxicity against human HEK293T cells assessed as reduction in cell viability incubated for 72 hrs by cell titer glo assay; assay type: cell-based
[2] = Apparent volume of distribution during terminal phase in Balb/c mouse at 5 mg/kg, ip administered as single dose measured upto 24 hrs by LC-MS/MS analysis; assay type: ADME, organism-based; conditions: in vivo, 5 mg/kg, 24 h
[3] = molecular target: T1, Histone deacetylase 8 (Homo sapiens, UniProt Q9BY41); experiment: Inhibition of full length human C-terminal His-tagged HDAC8 expressed in baculovirus infected Sf9 cells using Ac-peptide as substrate preincubated for 15 mins followed by substrate addition and incubated for 120 mins followed by trypsin addition and further incubated for 240 mins
T1 sequence (Q9BY41 whole entry): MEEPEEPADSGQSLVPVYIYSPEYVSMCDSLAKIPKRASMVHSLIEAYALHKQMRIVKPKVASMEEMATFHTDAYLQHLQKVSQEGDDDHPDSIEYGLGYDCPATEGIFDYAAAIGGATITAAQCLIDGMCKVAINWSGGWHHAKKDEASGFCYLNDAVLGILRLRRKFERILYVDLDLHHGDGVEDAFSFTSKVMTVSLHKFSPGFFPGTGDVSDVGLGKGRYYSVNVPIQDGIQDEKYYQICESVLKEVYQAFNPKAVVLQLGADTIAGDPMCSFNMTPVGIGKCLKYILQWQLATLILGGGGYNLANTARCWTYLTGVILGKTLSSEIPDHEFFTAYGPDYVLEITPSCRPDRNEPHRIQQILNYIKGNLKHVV

[4] = Tmax in Balb/c mouse at 5 mg/kg, ip administered as single dose measured upto 24 hrs by LC-MS/MS analysis; assay type: ADME, organism-based; conditions: in vivo
[5] = tested on: Plasmodium falciparum; experiment: Antiplasmodial activity against synchronized ring stage Plasmodium falciparum Dd2 infected in human erythrocytes assessed as reduction in parasite growth incubated for 72 hrs by Giemsa staining based light microscopic method; assay type: functional, organism-based; conditions: Dd2, Erythrocyte
[6] = Selectivity index, ratio of IC50 for cytotoxicity against human HepG2 cells assessed to IC50 for antiplasmodial activity against synchronized ring stage Plasmodium falciparum 3D7 infected in human erythrocytes; assay type: toxicity, cell-based; conditions: read-out: Ratio IC50
[7] = tested on: HepG2; experiment: Cytotoxicity against human HepG2 cells assessed as reduction in cell viability incubated for 72 hrs by cell titer glo assay; assay type: cell-based; conditions: HepG2, 72 h
[8] = molecular target: T2, Protein deacetylase HDAC6 (Homo sapiens, UniProt Q9UBN7); experiment: Inhibition of human HDAC6 using Ac-peptide as substrate preincubated for 15 mins followed by substrate and trypsin addition and further incubated for 60 mins
T2 sequence (Q9UBN7 whole entry): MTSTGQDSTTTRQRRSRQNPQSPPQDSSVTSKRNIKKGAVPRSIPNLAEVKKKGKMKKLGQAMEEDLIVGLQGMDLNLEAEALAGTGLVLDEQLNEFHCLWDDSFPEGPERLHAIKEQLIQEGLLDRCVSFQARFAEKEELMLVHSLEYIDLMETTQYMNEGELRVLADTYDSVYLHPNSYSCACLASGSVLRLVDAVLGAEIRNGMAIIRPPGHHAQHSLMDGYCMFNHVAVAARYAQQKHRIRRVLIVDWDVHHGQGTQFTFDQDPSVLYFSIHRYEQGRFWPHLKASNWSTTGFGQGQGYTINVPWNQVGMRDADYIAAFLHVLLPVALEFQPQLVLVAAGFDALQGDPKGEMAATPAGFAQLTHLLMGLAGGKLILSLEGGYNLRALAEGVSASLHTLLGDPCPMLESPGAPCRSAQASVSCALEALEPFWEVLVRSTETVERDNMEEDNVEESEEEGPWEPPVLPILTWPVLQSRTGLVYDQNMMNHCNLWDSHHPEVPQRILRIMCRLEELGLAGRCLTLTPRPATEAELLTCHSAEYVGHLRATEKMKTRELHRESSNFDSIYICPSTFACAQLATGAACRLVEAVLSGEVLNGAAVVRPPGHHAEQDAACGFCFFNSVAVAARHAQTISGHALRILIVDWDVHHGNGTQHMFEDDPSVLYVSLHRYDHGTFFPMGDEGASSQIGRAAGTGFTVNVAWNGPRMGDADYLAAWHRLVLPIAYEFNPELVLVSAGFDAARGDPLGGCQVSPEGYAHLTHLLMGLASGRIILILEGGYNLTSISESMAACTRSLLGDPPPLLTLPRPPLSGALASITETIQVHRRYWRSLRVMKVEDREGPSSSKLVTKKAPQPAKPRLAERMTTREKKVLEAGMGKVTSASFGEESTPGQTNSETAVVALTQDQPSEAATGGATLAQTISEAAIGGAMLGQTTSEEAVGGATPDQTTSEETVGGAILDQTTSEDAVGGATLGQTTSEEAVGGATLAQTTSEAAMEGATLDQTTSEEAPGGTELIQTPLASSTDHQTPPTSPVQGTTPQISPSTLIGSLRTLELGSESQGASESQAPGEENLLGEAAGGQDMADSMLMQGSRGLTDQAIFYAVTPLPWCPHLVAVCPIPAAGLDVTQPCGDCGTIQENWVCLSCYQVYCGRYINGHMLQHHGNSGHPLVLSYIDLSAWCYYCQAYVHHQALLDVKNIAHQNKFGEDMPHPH

[9] = tested on: Plasmodium falciparum; experiment: Antiplasmodial activity against artemisinin-resistant Plasmodium falciparum 6218 infected in human erythrocytes assessed as reduction in parasite growth incubated for 72 hrs by Giemsa staining based light microscopic method; assay type: functional, organism-based; conditions: Plasmodium falciparum, 6218, Erythrocyte
[10] = Apparent clearance during terminal phase in Balb/c mouse at 2 mg/kg, iv administered as single dose measured upto 24 hrs by LC-MS/MS analysis; assay type: ADME, organism-based; conditions: in vivo
[11] = molecular target: T3, NAD-dependent protein deacetylase sirtuin-2 (Homo sapiens, UniProt Q8IXJ6); experiment: Inhibition of human C-terminal His-tagged SIRT2 (50 to 356 residues) expressed in Escherichia coli using Ac-peptide as substrate preincubated for 15 mins followed by substrate addition and incubated for 240 mins followed by trypsin addition and further incubated for 120 mins
T3 sequence (Q8IXJ6 whole entry): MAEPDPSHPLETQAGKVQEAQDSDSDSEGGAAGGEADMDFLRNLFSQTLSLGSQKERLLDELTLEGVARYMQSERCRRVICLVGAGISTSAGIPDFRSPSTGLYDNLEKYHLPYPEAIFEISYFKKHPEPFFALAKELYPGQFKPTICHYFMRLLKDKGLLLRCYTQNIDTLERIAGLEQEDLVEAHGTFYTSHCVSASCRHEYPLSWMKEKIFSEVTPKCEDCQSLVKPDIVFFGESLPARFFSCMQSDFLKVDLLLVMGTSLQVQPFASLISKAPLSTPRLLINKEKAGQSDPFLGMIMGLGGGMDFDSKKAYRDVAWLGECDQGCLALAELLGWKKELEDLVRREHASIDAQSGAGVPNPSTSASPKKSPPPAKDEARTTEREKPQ

[12] = tested on: Plasmodium falciparum; experiment: Antiplasmodial activity against schizont stage Plasmodium falciparum 3D7 infected in human erythrocytes assessed as reduction in parasitemia at 10 times IC50 incubated for 12 hrs followed by compound washout and measured at 96 hrs post infection by […] analysis; assay type: functional, organism-based; conditions: Erythrocyte
[13] = Oral bioavailability in Balb/c mouse at 10 mg/kg administered as single dose measured upto 24 hrs by LC-MS/MS analysis; assay type: ADME, organism-based; conditions: in vivo

For Cl.O=C(NO)c1cnc(N2CCC3(CCN(Cc4c[nH]c5ccccc45)C3)CC2)nc1, the IC50 [1] was 241 nM, the Vz/F [2] was 60.4 L/kg and the IC50 [3] was 16 nM. For the same compound, the Tmax [4] was 15 min, the IC50 [5] was 1.9 nM and the selectivity ratio [6] was 83. It also gave an IC50 [7] of 264 nM, an IC50 [8] of 32 nM and an IC50 [9] of 3 nM. For the same compound, the CLz/F [10] was 280 mL/min/kg, the IC50 [11] was over 10000 nM and the Activity [12] was “Active”. For the same compound, the bioavailability [13] was 0.5%.
